# Assay results as given in patent US20090227533A1, “miR-34 Regulated Genes and Pathways as Targets for Therapeutic Intervention” (priority 2007, published 2009).
# Key:
# [1] = test system: H226 lung cancer cells; experiment: Long-term growth curve with repeated electroporation; assay type: cell-based, human; conditions: day 31, relative to control cells (100%)
# Experimental: To evaluate the therapeutic activity of hsa-miR-34a over an extended period of time, the inventors conducted growth curve experiments in the presence of miRNA for up to 31 days in H226 lung cancer cells. Since in vitro transfections of naked interfering RNAs, such as synthetic miRNA, are transient by nature and compromised by the dilution of the oligo during ongoing cell divisions, miRNA was administered at multiple time points (Bartlett et al., 2006; Bartlett et al., 2007). To accommodate miRNA delivery into a large quantity of cells, hsa-miR-34a or negative control miRNA were delivered by the electroporation method. Briefly, 1×10^6H226 were electroporated in triplicate with 1.6 μM hsa-miR-34a or negative control using the BioRad Gene Pulser Xcell™ instrument (BioRad Laboratories Inc., Hercules, Calif., USA), seeded and propagated in regular growth medium. When the control cells reached confluence (days 6, 17 and 25), cells were harvested, counted and electroporated again with the respective miRNAs. […] The population doubling was calculated from these electroporation events using the formula PD=ln(Nf/N0)/ln 2 and adjusting for the fact that approximately 72% of newly seeded cells adhere to the plate. […]
# [2] = test system: Du145 prostate cancer cells; experiment: as above; assay type: cell-based, human
# Experimental: (§1) To evaluate the therapeutic activity of hsa-miR-34a over an extended period of time, we conducted growth curve experiments in the presence of miRNA for up to 22 days. Since in vitro transfections of naked interfering RNAs, such as synthetic miRNA, are transient by nature and compromised by the dilution of the oligo during ongoing cell divisions, miRNA was administered at multiple time points (Bartlett et al. 2006; Bartlett et al. 2007). To accommodate miRNA delivery into a large quantity of cells, the inventors employed the electroporation method to deliver hsa-miR-34a or negative control miRNA into PPC-1, PC3, and Du145 human prostate cancer cells. Briefly, 1×10^6 PPC-1 or PC3 cells, or 0.5×10^6 Du145 cells were electroporated with 1.6 μM hsa-miR-34a or negative control using the BioRad Gene Pulser Xcell™ instrument (BioRad Laboratories Inc., Hercules, Calif., USA), seeded and propagated in regular growth medium. Experiments with PC3 and Du145 cells were carried out in triplicates. When the control cells reached confluence (days 4 and 11 for PPC-1; days 7 and 14 for PC3 and Du145), cells were harvested, counted and electroporated again with the respective miRNAs. To ensure similar treatment of both conditions as well as to accommodate exponential growth, the cell numbers used for the second and third electroporation were titrated down to the lowest count. The population doubling was calculated from these electroporation events using the formula PD=ln(Nf/N0)/ln 2 and adjusting for the fact that approximately 72% of newly seeded cells adhere to the plate. Cell counts were extrapolated and plotted on a linear scale (FIG. 6). Arrows represent electroporation days. Standard deviations are included in the graphs.
# [3] = test system: PC3 prostate cancer cells; experiment: as above; assay type: cell-based, human
# Experimental: as §1
# [4] = test system: PPC-1 prostate cancer cells; experiment: as above; assay type: cell-based, human; conditions: by day 22; 1.6 μM electroporated repeatedly
# Experimental: as §1
# [5] = test system: PPC-1 prostate cancer xenograft; experiment: Tumor growth of human prostate cancer xenograft; assay type: in vivo, NOD/SCID mice
# Experimental: Therefore, hsa-miR-34a is likely to interfere with prostate tumor growth in the animal. To explore this possibility, the therapeutic potential of synthetic hsa-miR-34a miRNA was evaluated in the animal using the PPC-1 human prostate cancer xenograft. 5×10^6 PPC-1 cells per animal were electroporated with 1.6 μM synthetic hsa-miR-34a or negative control miRNA (Pre-miR™-hsa-miR-34a, Ambion cat. no. AM17100; NC, Pre-miR™ microRNA Precursor Molecule-Negative Control #2, Ambion cat. no. AM17111), mixed with BD Matrigel™, (BD Biosciences; San Jose, Calif., USA; cat. no. 356237) in a 1:1 ratio and implanted subcutaneously into the lower back of NOD/SCID mice (Charles River Laboratories, Inc.; Wilmington, Mass., USA). A group of 7 mice was injected with hsa-miR-34a treated PPC-1 cells, and a group of 7 animals was injected with PPC-1 cells treated with negative control miRNA. To maintain steady levels of miRNA, 6.25 μg of each hsa-miR-34a or negative control miRNA conjugated with the lipid-based siPORT™ amine delivery agent (Ambion, Austin, Tex.; cat. no. AM4502) were repeatedly administered on days 7, 13, 20, and 25 via intra-tumoral injections. Given an average mouse weight of 20 g, this dose equals 0.3125 mg/kg. Tumor growth was monitored by taking caliper measurements every 1-2 days for 32 days. Tumor volumes were calculated using the formula, Volume=length×width×width/2, in which the length is greater than the width, and plotted over time (FIG. 7). Standard deviations are shown in the graph. All data points had p values<0.01. p values were as low as 1.86×10^−9 for data obtained on day 22, indicating statistical significance.
# [6] = test system: prostate cancer cells (22Rv1); conditions: cited from earlier work
substance,measurement,setting,value
"hsa-miR-34a: synthetic miRNA; mature sequence UGGCAGUGUCUUAGCUGGUUGUU (MIMAT0000255; SEQ ID NO:1) (synthetic miRNA, chemistry not given here)",inhibition of H226 cell growth,"[1]; 1.6 μM electroporated on days 0, 6, 17, 25",94.9%
same,remaining cells,[1],5.1%
same,cells relative to cells electroporated with negative control miRNA,"[2]; Du145, day 19",6.9%
same,inhibition of Du145 cell growth,"[2]; day 19, 1.6 μM electroporated repeatedly, relative to control cells (100%)",93.1%
same,cells relative to cells electroporated with negative control miRNA,"[3]; PC3, day 21",2.8%
same,inhibition of PC3 cell growth,"[3]; day 21, 1.6 μM electroporated repeatedly, relative to control cells (100%)",97.2%
same,fate of PPC-1 cells in long-term culture,[4],eliminated
same,average tumor volume,"[5]; day 32, cells electroporated with 1.6 μM, then 6.25 μg intratumoral on days 7, 13, 20, 25, n=7",151 mm^3
same,effect of each single administration on tumor volumes,"[5]; mouse, in vivo",acute regression of tumor volumes
same,tumor growth of PPC-1 xenograft,[5]; repeated dosing,blocked tumor growth
same,proliferation,[6],inhibits the proliferation
